From US20130253015A1, “Cyclodextrin-Based Microemulsions, and Dermatological Uses Thereof” (PRECISION DERMATOLOGY, INC., priority 2012, published 2013)

Tests used:
[1] = Solubility/dispersibility of retinol in Labrasol-HPGCD-water microemulsion systems; assay type: physicochemical
From the text: Drug used: 1. Solid Retinol (98%) from Sigma, 2.
Cyclodextrin used: hydroxypropyl-X-cyclodextrin (X=alpha, beta, or gamma).

[2] = cited from earlier work

amount of retinol that can be incorporated into cyclodextrin-based microemulsions ([1]; cyclodextrin-based microemulsions of the invention): greater than 1.0 wt %
miscibility in Labrasol-HPGCD-water microemulsion system ([1]; final retinol concentration 1.2%, clear transparent system (FIG. 4(b), 4(c))): complete miscibility
Compound: CC1=C(/C=C/C(C)=C/C=C/C(C)=C/CO)C(C)(C)CCC1 [solid retinol, Retinol]
miscibility in water [2]: immiscible in water
